For one compound, IC50 results are on record in paper PMC2777898, “CCR2 and CXCR4 regulate peripheral blood monocyte pharmacodynamics and link to efficacy in experimental autoimmune encephalomyelitis” (Journal of Inflammation (London, England), 2009).

The target of the assay is T1, CCR2 (Mus musculus, UniProt P51683).
T1 construct: membranes from Ba/F3 cells transfected with mouse CCR2
As to the kind of experiment: […]-rhCCL2 radioligand displacement, SPA, on membranes in mouse plasma. In kind it is binding. (Loss of bound radioactivity is the signal in a displacement assay; it reports binding, not function.)

T1 sequence (P51683 whole entry): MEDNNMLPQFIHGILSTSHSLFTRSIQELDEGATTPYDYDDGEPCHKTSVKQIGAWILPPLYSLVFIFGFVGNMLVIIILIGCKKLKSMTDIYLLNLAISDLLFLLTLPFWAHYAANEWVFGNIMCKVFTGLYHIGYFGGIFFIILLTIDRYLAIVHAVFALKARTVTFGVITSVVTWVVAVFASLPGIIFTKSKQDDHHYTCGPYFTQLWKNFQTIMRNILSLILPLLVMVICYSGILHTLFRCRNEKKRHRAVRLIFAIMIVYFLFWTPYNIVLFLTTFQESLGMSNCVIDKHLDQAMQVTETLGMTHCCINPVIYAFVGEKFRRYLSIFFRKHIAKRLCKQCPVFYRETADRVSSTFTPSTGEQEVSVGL

In turn, `CO[C@@H]1COCC[C@@H]1N[C@@H]1CC[C@@](C(=O)N2CCc3ncc(C(F)(F)F)cc3C2)(C(C)C)C1` [MK0812] yielded an IC50 of 19 nM.

One may read the IC50 as the point on the concentration scale where inhibition reaches its midpoint. The low end stands for higher potency, the high end for lower potency.
